Entries after “also recorded” stand apart in the source; their conditions may differ.
Key:
Conditions in all cases: 18 h
[1] = test system: differentiated human podocytes; experiment: Compound cytotoxicity in differentiated human podocytes (ApoTox-Glo Triplex Assay); type: cell-based
Protocol: Podocytes were seeded in 96-well plates (Greiner) and allowed to differentiate for 14 days. Cells were then washed with PBS, and incubated with media (RPMI-0.2% BSA) with or without vehicle and compounds for 18 h at 37° C., 5% CO2. Compound concentrations tested were 1 μM, 5 μM, 10 μM and 20 μM. Vehicle (DMSO) final concentration was 0.1%. All treatments were done in duplicates. Cytotoxicity was assayed using ApoTox-Glo Triplex Assay (Promega) following manufacturer's instructions. Briefly, cell-permeant (GF-AFC) and cell impermeant (bis-AAF-R110) peptide substrates were diluted and added to all wells and the cells were incubated at 37° C., 5% CO2 for 1 hr. A set of cells were treated with saponin (2 mg/ml) as a positive control of cell cytotoxicity. Cell viability and cytotoxicity fluorescence signals were measured at 400 nm/505 nm and 485 nm/520 nm Excitation/Emission, respectively using a fluorescence microplate reader (SpectraMax i3). RFU signal obtained with the cell toxicity substrate was normalized to the one obtained with the viable substrate in the same well to eliminate the effect of different cell numbers per well.

ABCA1 [2] = experiment: ABCA1 expression by western blot in differentiated podocytes; type: cell-based, human
Protocol: Podocytes differentiated for 14 days were starved in RPMI-0.2% FBS for 18 h and then treated with freshly prepared dilutions of compounds in full media for 18 h at 37° C. and 5% CO2. Compound concentrations of 1 μM, 5 μM and 10 μM were evaluated. Cells were then washed with PBS and lysed with 1× cell lysis buffer (Cell Signaling) supplemented with protease and phosphatase inhibitor cocktails (Roche). Total protein content was determined by BCA method (Pierce, Thermoscientific). ABCA1 expression was analyzed by western blot.
(§1) Lysates, or cell fractions were incubated with buffer sample at 55° C. for 10 min under reducing conditions. A total of […] of protein in lysates, and one third of the volume collected in cell fraction preps, were separated by SDSPAGE in 4-20% gels (Biorad) and proteins were then transferred to PVDF membranes. Membranes were blocked with 5% milk and blotted with protein-specific antibodies for 18 h at 4° C. The following antibodies were used: mouse anti-ABCA1 (Abcam; 1:1,000), rabbit anti-GAPDH antibody (Millipore; 1:10,000), rabbit anti-MEK and anti-Na^+/K^+ ATPase (Cell Signaling; 1:1,000). After washing with PBS-T, membranes were incubated with anti-mouse and anti-rabbit specific antibodies conjugated to HRP (Promega) 1:10,000 in 5% milk. Membranes were washed and signal was developed using Western bright ECL substrate (Advansta).

ABCA1 [3] = experiment: Cell fractionation, ABCA1 localization by western blot; type: cell-based, human
Protocol: 14 day-differentiated podocytes were treated with compounds Cpd C (1 μM), Cpd A (5 μM) and Cpd G (10 μM) for 18 h and then washed and scraped with ice cold PBS. Cells were centrifuged at 1,000×g for 5 min, supernatant was carefully aspirated and the pellet resuspended in hypotonic buffer (15 mM KCl, 1.5 mM MgCl2, 10 mM HEPES and 1 mM DTT) supplemented with Roche's protease inhibitor cocktail. Further cell rupture was ensured by frothing in a glass douncer and two freeze and thaw cycles. Sucrose was added, 227 mM final concentration, and the cells were centrifuged at 1,000×g for 30 min at 4° C. The supernatant was then transferred to a new tube and centrifuged at 10,000×g for 15 min at 4° C. The pellet, containing the microsomal fraction was collected and the supernatant was transferred to a new tube and centrifuged at 100,000×g for 1 hr at 4° C. The pelleted plasma membrane fraction was collected and the supernatant, containing non membranous cytosolic fraction, was concentrated in Vivaspin 500 filter columns. The presence of ABCA1, and proteins known to be present at the plasma membrane (Na^+/K^+ sodium pump) and cytosol (MEK), in each fraction was verified by western blot.
as §1

[4] = concentrations above 10 uM, FIG. 3

Structure (SMILES) | Cytotoxicity ([1]; 20 μM) | Cytotoxicity [1, 4] | ABCA1 expression (western blot, whole cell lysates) (ABCA1 [2]; 5 uM, FIG. 4B) | ABCA1 expression (western blot, whole cell lysates) (ABCA1 [2]; 10 uM) | ABCA1 in the microsomal compartment (ABCA1 [3]; 5 μM) | ABCA1 localization at the plasma membrane (ABCA1 [3]; 5 μM) | ABCA1 expression (western blot, whole cell lysates) (ABCA1 [2]; doses as low as 1 uM, FIG. 4A) | ABCA1 localization at the plasma membrane (ABCA1 [3]; 1 μM) | ABCA1 in the microsomal compartment (ABCA1 [3]; 10 μM) | ABCA1 localization at the plasma membrane (ABCA1 [3]; 10 μM)
O=C(N[C@@H]1CCCC[C@H]1O)c1ccc(OCC(F)(F)F)c(-c2ccc(Cl)c(Cl)c2)n1 [Cpd A, 6-(3,4-Dichlorophenyl)-N-[(1R,2R)-2-hydroxycyclohexyl]-5-(2,2,2-trifluoroethoxy)pyridine-2-carboxamide] | significant toxicity | significant toxicity | modest increase | modest induction; also recorded: increased ABCA1 expression | Less ABCA1 | increase the expression of ABCA1 at the plasma membrane; also recorded: promoted ABCA1 localization at the plasma membrane |  |  |  | 
Cc1oc(-c2cccc(C(F)(F)F)c2)nc1Cn1c(C)cc2cc(C(O)(C(F)(F)F)C(F)(F)F)ccc21 [Cpd C, 1,1,1,3,3,3-Hexafluoro-2-{2-methyl-1-[5-methyl-2-(3-trifluoromethyl-phenyl)-oxazol-4-ylmethyl]-1H-indol-5-yl}-propan-2-ol, reference compound] | significant toxicity | significant toxicity |  |  |  |  | strong induction; also recorded: markedly increased | increase the expression of ABCA1 at the plasma membrane; also recorded: promoted ABCA1 localization at the plasma membrane |  | 
O=C(N[C@@H]1CCCC[C@H]1O)c1cnc(OCC(F)(F)F)c(-c2ccc(Cl)c(Cl)c2)c1 [Cpd G, 5-(3,4-dichloro-phenyl)-N-((1R,2R)-2-hydroxy-cyclohexyl)-6-(2,2,2-trifluoro-ethoxy)-nicotinamide] |  |  |  | modest induction; also recorded: modest increase; also recorded: increased ABCA1 expression |  |  |  |  | Less ABCA1 | increase the expression of ABCA1 at the plasma membrane; also recorded: promoted ABCA1 localization at the plasma membrane
